As a reminder, the IC50 is the concentration that inhibits the measured activity by half.

For test [1], the target named is T1, Cystathionine γ-lyase (CSE) (Rattus norvegicus, UniProt P18757). The arrangement: gene Cth.
For test [2], the target named is T1, Cystathionine γ-lyase (CSE). More on the design: gene Cth. The source holds these as a separate data set.
The target is the same in test [3]. Nature of the test: SSP4 fluorescence assay of Cys-SSH production from cystine after preincubation with L-CysNO; also a substrate (HSNO by TAP-1, pyruvate assay). The class given is biochemical. The arrangement: gene Cth; recombinant rat CSE expressed in E. coli as GST-CSE, GST tag cleaved.
For test [4] the target is unchanged. Nature of the test: TAP-1 assay of HSNO production from L-CysNO with or without […] PLP. More on the design: gene Cth; recombinant rat CSE, purified from E. coli. The format is biochemical.

T1 sequence (P18757 whole entry): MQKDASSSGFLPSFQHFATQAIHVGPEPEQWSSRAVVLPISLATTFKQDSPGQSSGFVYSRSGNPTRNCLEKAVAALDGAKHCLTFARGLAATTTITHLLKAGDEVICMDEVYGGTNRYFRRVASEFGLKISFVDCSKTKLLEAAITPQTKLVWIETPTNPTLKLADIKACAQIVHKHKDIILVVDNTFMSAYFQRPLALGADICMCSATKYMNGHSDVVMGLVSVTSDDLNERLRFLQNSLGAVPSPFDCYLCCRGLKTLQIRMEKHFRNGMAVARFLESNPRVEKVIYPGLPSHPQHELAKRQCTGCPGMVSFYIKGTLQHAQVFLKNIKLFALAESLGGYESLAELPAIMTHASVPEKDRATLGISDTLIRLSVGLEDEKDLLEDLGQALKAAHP

Turning to `N[C@@H](CCSC[C@H](N)C(=O)O)C(=O)O` [cystathionine], the “DTNB assay of cysteine formed from 1 mM cystathionine (γ-lyase activity)” value in test [1] is listed as “The cysteine produced by CSE from cystathionine was measured by DTNB assay”. Take `N[C@@H](CSSC[C@H](N)C(=O)O)C(=O)O` [cystine]: the “SSP4 fluorescence assay of Cys-SSH formed from 1 mM cystine (β-lyase activity)” value in test [2] was “The Cys-SSH produced by CSE with cystine as the substrate was measured by using SSP4”. In the case of `N[C@@H](CSN=O)C(=O)O` [L-CysNO, L-S-nitrosocysteine], in test [3], the IC50 stood at 10 µM.

As to `Cc1ncc(COP(=O)(O)O)c(C=O)c1O` [PLP, pyridoxal 5′-phosphate], the “TAP-1 assay of HSNO production from L-CysNO with or without 50 μM PLP” value in test [4] is given as “The PLP-dependent β-lyase activity of CSE toward L-CysNO—but not D-CysNO—in producing HSNO was evident”.

(Values after article PMC12466479, “The Supersulfide-Producing Activity of Rat Cystathionine γ-Lyase Is Irreversibly Inactivated by L-CysNO but Not by L-GSNO” (Antioxidants, 2025).)
